Structures are written as SMILES.

The target in one data set is T1, HIV-1 NL4-3 CA monomer (Human immunodeficiency virus type 1 group M subtype B, UniProt P12493).
T1 construct: the HIV-1 NL4-3 capsid protein constructs; His6 (C); made in house; host or cells: E. coli BL21-Codon Plus (DE3)-RIL
Kind of data set: biochemical. Format: binding. As to conditions: SPR.

A further data set in a line: in vitro. As to conditions: human, CC50. How it is done: (§1) The evaluation of the antiviral activity of the compounds against HIV in MT-4 cells was performed using the MTT assay as described below. Stock solutions (10 × final concentration) of test compounds were added in 25 μL volumes to two series of triplicate wells to allow simultaneous evaluation of their effects on mock- and HIV-infected cells at the beginning of each experiment. Serial 5-fold dilutions of test compounds were made directly in flat-bottomed 96-well microtiter trays using a Biomek 3000 robot (Beckman Instruments, Fullerton, CA). Untreated HIV- and mock-infected cell samples were included as controls. HIV stock ([…]) at 100–300 CCID50 (50% cell culture infectious doses) or culture medium was added to either the infected or mock-infected wells of the microtiter tray. Mock-infected cells were used to evaluate the effects of the test compound on uninfected cells to assess the test compounds’ cytotoxicity. Exponentially growing MT-4 cells were centrifuged for 5 min at 220 g, and the supernatant was discarded. The MT-4 cells were resuspended at 6 × 10^5 cells/mL, and 50 μL volumes were transferred to the microtiter tray wells. Five days after infection, the viability of mock- and HIV-infected cells was examined spectrophotometrically using the MTT assay. The MTT assay is based on the reduction of yellow-colored 3-(4,5-dimethylthiazol-2-yl)-2,5-diphenyltetrazolium bromide (MTT) (Acros Organics) by mitochondrial dehydrogenase activity in metabolically active cells to a blue-purple formazan that can be measured spectrophotometrically. The absorbances were read in an eight-channel computer-controlled photometer (Infinite M1000, Tecan) at two wavelengths (540 and 690 nm). All data were calculated using the median absorbance value of three wells.

The next data set deals with HIV-1. Kind of data set: Anti-HIV-1 activity in MT-4 cells (MTT method). It counts as cell-based. As to conditions: Human immunodeficiency virus 1, MT4; MT-4 cells, 50% protection against HIV-induced cytopathicity, MTT method. Here is the method:
as §1
In general terms: Tetrazolium dyes change colour on reduction, which living cells bring about.

In the next data set the test system is HIV-2. Kind of data set: Anti-HIV-2 activity in MT-4 cells (MTT method). It counts as cell-based. How it is done:
as §1

For the next data set, the target named is HIV-1 NL4-3 CA hexamer (Human immunodeficiency virus type 1 group M subtype B, UniProt P12493, A146C/E177C/M317A/W316A). Put plainly: SPR binding to disulfide-stabilized NL4-3 CA hexamer.
The conditions of data set [1]: metabolic stability; cited from earlier work.
Another data set relates to HIV. As to conditions: moderate activity; cited from earlier work.
[2] abbreviates: Human immunodeficiency virus 2, MT4, 50% protection against HIV-induced cytopathicity.

In turn, `COc1ccc(N(C)C(=O)[C@H](Cc2cc(F)cc(F)c2)NC(=O)CN(Cc2ccc(F)cc2)C(=O)Cn2nc(C(F)(F)F)c3c2CCCC3)cc1` [I-19, (S)-3-(3,5-difluorophenyl)-2-(2-(N-(4-fluorobenzyl)-2-(3-(trifluoromethyl)-4,5,6,7-tetrahydro-1H-indazol-1-yl)acetamido)acetamido)-N-(4-methoxyphenyl)-N-methylpropanamide] showed a melting point of 46 to 48 °C. The “Ratio KD (monomer)/KD(hexamer)” value on HIV-1 NL4-3 CA monomer was found to be 0.36. At HIV-1 NL4-3 CA monomer (1:1 binding model), the “Koff Monomer” value is given as 0.0301 ± 0.0172 S^−1 and the “Kon Monomer” value is 4160 ± 1670 M^−1S^−1. Moreover, the affinity on HIV-1 NL4-3 CA monomer (25 °C, at least 3 replicates), expressed as Kd, was 13.3 µM. The compound also showed a CC50 at 5 days in the data set “in vitro” of 108 ± 27.4 µM. This compound came in with an EC50 in the data set on HIV-1 of 2.53 ± 0.84 µM. In addition, in the data set with HIV-2 (setting [2]), the EC50 amounted to 12.9 ± 3.72 µM. In addition, at HIV-1 NL4-3 CA hexamer (1:1 binding model), the “Koff Hexamer” value is recorded as 0.00758 ± 0.000504 S^−1 and the “Kon Hexamer” value was 628 ± 152 M^−1S^−1. This compound registered an equilibrium dissociation constant (Kd) at HIV-1 NL4-3 CA hexamer (25 °C, at least 3 replicates) of 36.9 µM.

As to `Cc1[nH]c2ccccc2c1CC(=O)NC(Cc1ccccc1)C(=O)N(C)c1ccccc1` (centres unmarked) [PF-74, reference compound], the CC50 at 5 days in “in vitro” worked out at 73.8 ± 7.54 µM. Also, in data set [1], the T1/2 is 30 to 78 s. For the same compound, the EC50 in the data set with HIV-1 was 0.26 ± 0.08 µM; in the data set with HIV-2 (50% protection against HIV-induced cytopathicity), 2.22 ± 0.31 µM; with HIV-2 (setting [2]), above 2.22 µM; in the data set on HIV, 0.52 to 0.9 µM.

Usually Kd stands for the equilibrium constant for the complex coming apart. Low values mean a tighter complex, high ones a looser complex. Broadly, the EC50 is the concentration needed to bring the measured effect to its halfway point. In general, melting point refers to the temperature of the solid-liquid transition.

These data come from publication PMC9502897, “Design, Synthesis and Structure—Activity Relationships of Phenylalanine-Containing Peptidomimetics as Novel HIV-1 Capsid Binders Based on Ugi Four-Component Reaction” (Molecules, 2022).
